{
  "source": "patent US11952361B1",
  "about": "“2-(1-(3-(dimethylamino)propyl)-4,5-diphenyl-1H-imidazol-2-yl) pyridin-3-ol as an antitumor and antimicrobial compound” (KING FAISAL UNIVERSITY, priority 2023, dated 2024)",
  "key": {"[1]": {"system": "human osteosarcoma cells (MG-63)", "assay": "Cytotoxicity by SRB assay, MG-63 cells", "assay_type": "cell-based", "conditions": "0.01 μM to 100 μM, 72 h", "description": "(§1) The human prostate cancer cells (PC3) and human osteosarcoma cells (MG-63) were obtained from Nawah Scientific Inc. (Mokatam, Cairo, Egypt) and cultured in DMEM (Dulbecco's modified eagle's medium), Gibco, USA, supplemented with fetal bovine serum (FBS) at a concentration of 10% and […]. of penicillin and streptomycin (PS). The Cells were incubated at 37° C. in a humidified environment that contained 5% CO2.\n(§2) Cells were seeded in 96-well plates as aliquots of 100 μL cell suspension and incubated in a complete media for 24 h. afterward, cells were treated with 2-(1-(3-(Dimethylanino)propyl)-4,5-diphenyl-1H-imidazol-2-yl)pyridin-3-ol at diverse concentrations ranging from 0.01 μM to 100 μM for 72 h. Then, cells were fixed at 4° C. for one hour with 150 μL of 10% trichloroacetic acid (TCA). After washing the cells five times with distilled water, 70 μL of sulforhodamine (SRB) solution (0.4% w/v) was added and incubated for 10 min at room temperature in a dark place. […] Then, 150 μL of Tris pH 10.5 (10 mM) was added, and the absorbance was measured at 540 nm using a BMG LABTECH®-FiLJOstar Omega microplate reader (Ortenberg, Germany). Half maximal inhibitory concentrations (IC50) values were calculated for each experiment using GraphPad Prism 6 software. […]\n(§3) The inhibition was calculated using the following equation: Inhibition %=100−Average Viability"}, "[2]": {"system": "human prostate cancer cells (PC3)", "assay": "Cytotoxicity by SRB assay, PC3 cells", "assay_type": "cell-based", "conditions": "0.01 μM to 100 μM, 72 h", "description": "as §1, §2, §3"}},
  "data": [
    {"compound": "CN(C)CCCn1c(-c2ncccc2O)nc(-c2ccccc2)c1-c1ccccc1", "note": "[2-(1-(3-(Dimethylamino)propyl)-4,5-diphenyl-1H-imidazol-2-yl)pyridin-3-ol]", "values": [
      {"measurement": "antiproliferative activity", "setting": "[1]", "result": "excellent antiproliferative activities"},
      {"measurement": "antiproliferative activity", "setting": "[2]", "result": "excellent antiproliferative activities"},
      {"measurement": "melting point", "result": "133 to 135", "unit": "°C"}
    ]}
  ]
}
